Laboratory results reported in ChEMBL document CHEMBL2417377, “Hit-to-lead optimization and kinase selectivity of imidazo[1,2-a]quinoxalin-4-amine derived JNK1 inhibitors” (Bioorg Med Chem Lett, 2013).

Legend:
Details in all cases: PC-3
[1] = molecular target: Cyclin-dependent kinase 10 (Homo sapiens) (UniProt Q15131); test: Inhibition of CDK10 in human PC3 cell lysates at 10 uM using desthiobiotin-tagged ATP probe AX9989 followed by trypsinization by LC/MS analysis
[2] = molecular target: Dual specificity mitogen-activated protein kinase kinase 2 (Homo sapiens) (UniProt P36507); test: Inhibition of MAP2K2 in human PC3 cell lysates at 10 uM using desthiobiotin-tagged ATP probe AX9989 followed by trypsinization by LC/MS analysis
Dual specificity mitogen-activated protein kinase kinase 2 (Homo sapiens), sequence (P36507 whole entry, the tested form may be a part): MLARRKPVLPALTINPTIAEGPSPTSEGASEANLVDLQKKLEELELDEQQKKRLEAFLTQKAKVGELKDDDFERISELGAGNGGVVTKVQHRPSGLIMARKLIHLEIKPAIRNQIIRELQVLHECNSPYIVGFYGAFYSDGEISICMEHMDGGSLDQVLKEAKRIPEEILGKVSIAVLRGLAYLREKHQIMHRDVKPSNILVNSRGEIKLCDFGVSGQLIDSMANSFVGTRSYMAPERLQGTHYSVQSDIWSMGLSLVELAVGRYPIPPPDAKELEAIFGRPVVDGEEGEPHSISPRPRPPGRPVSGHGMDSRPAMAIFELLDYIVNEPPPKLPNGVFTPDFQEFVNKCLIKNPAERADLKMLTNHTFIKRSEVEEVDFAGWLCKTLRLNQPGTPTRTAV

[3] = molecular target: Ribosomal protein S6 kinase alpha-3 (Homo sapiens) (UniProt P51812); test: Inhibition of RSK2 domain2 in human PC3 cell lysates at 10 uM using desthiobiotin-tagged ATP probe AX9989 followed by trypsinization by LC/MS analysis
Ribosomal protein S6 kinase alpha-3 (Homo sapiens), sequence (P51812 whole entry, the tested form may be a part): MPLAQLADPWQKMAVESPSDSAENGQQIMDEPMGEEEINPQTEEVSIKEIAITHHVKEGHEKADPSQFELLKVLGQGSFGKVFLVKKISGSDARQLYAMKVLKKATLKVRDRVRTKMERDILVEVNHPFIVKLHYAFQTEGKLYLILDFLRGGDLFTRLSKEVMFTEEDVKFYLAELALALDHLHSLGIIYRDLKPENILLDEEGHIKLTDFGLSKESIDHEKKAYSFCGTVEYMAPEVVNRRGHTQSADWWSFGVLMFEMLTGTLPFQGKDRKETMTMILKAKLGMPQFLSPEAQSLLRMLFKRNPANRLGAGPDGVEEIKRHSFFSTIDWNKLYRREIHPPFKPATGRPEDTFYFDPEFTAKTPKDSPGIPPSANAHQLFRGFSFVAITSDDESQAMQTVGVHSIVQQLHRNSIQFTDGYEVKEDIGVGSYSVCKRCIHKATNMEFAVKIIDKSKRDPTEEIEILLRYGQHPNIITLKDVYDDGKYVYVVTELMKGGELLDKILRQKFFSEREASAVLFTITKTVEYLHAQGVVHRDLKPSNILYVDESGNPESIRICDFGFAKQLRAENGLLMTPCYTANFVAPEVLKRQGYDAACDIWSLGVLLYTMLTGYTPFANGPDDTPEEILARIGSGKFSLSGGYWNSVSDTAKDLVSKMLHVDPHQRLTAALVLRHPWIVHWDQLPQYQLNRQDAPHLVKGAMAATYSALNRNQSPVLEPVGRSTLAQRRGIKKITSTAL

[4] = molecular target: Cyclin-dependent kinase 5 (Homo sapiens) (UniProt Q00535); test: Inhibition of CDK5 in human PC3 cell lysates at 10 uM using desthiobiotin-tagged ATP probe AX9989 followed by trypsinization by LC/MS analysis
Cyclin-dependent kinase 5 (Homo sapiens), sequence (Q00535 whole entry, looked up): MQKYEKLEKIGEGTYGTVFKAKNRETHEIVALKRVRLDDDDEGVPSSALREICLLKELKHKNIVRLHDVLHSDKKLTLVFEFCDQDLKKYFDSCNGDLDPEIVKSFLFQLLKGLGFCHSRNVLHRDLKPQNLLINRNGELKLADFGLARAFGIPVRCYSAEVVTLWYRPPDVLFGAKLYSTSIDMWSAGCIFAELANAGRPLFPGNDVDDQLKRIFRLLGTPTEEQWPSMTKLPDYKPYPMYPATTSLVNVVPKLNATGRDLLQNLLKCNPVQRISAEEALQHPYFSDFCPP

[5] = molecular target: Mitogen-activated protein kinase kinase kinase 4 (Homo sapiens) (UniProt Q9Y6R4); test: Inhibition of MAP3K4 in human PC3 cell lysates at 10 uM using desthiobiotin-tagged ATP probe AX9989 followed by trypsinization by LC/MS analysis
Mitogen-activated protein kinase kinase kinase 4 (Homo sapiens), sequence (Q9Y6R4 whole entry): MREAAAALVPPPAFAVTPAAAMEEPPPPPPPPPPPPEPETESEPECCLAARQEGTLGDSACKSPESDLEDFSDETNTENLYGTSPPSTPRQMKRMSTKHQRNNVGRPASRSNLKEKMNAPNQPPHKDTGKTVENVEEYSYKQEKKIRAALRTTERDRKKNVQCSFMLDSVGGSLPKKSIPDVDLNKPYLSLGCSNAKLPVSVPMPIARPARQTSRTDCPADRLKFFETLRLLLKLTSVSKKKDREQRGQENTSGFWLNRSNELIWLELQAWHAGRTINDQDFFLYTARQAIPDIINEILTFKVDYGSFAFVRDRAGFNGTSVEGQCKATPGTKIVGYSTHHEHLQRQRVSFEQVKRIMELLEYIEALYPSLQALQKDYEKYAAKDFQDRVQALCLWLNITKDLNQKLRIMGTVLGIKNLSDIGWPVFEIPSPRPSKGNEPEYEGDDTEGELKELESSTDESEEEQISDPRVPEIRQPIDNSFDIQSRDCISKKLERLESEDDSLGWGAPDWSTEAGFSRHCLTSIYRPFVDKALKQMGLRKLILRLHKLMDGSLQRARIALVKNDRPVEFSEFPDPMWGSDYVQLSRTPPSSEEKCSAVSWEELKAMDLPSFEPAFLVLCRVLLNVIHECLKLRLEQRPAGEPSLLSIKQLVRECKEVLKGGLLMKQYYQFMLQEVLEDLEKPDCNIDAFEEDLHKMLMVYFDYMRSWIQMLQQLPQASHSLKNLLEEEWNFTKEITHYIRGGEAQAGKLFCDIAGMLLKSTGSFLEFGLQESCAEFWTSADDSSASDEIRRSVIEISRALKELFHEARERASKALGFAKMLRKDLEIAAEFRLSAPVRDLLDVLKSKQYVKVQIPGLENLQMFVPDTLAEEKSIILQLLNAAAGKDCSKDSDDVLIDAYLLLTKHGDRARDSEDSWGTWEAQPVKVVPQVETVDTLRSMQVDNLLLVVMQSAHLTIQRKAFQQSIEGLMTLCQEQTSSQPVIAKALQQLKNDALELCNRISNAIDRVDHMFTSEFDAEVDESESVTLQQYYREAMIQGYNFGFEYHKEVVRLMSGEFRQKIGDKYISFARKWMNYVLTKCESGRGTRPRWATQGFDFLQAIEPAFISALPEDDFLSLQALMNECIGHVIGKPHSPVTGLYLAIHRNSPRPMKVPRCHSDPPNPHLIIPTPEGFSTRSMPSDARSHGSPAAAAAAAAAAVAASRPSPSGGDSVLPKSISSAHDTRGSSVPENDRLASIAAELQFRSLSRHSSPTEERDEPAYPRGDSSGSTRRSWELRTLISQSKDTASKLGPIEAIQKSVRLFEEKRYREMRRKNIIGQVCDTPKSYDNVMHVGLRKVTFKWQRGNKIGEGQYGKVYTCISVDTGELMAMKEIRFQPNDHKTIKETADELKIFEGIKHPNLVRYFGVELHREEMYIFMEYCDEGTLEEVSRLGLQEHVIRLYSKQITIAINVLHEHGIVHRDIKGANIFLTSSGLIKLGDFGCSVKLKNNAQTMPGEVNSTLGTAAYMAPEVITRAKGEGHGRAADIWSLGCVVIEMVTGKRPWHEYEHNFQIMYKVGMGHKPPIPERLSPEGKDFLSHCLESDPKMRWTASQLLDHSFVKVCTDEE

[6] = Inhibition of PITSLRE in human PC3 cell lysates at 10 uM using desthiobiotin-tagged ATP probe AX9989 followed by trypsinization by LC/MS analysis; type: cell-free
[7] = molecular target: Casein kinase II subunit alpha' (Homo sapiens) (UniProt P19784); test: Inhibition of CK2alpha2 in human PC3 cell lysates at 10 uM using desthiobiotin-tagged ATP probe AX9989 followed by trypsinization by LC/MS analysis
Casein kinase II subunit alpha' (Homo sapiens), sequence (P19784 whole entry, looked up): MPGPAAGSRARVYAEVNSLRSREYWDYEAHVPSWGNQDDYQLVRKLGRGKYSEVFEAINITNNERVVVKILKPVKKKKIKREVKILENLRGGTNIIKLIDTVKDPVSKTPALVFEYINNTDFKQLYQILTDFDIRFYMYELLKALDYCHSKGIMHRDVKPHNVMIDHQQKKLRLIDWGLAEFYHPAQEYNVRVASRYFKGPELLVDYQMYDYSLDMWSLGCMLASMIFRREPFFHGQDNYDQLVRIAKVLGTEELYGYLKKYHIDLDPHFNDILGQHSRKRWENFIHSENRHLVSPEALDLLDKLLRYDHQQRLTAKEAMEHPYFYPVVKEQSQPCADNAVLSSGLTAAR

[8] = molecular target: Serine/threonine-protein kinase WNK2 (Homo sapiens) (UniProt Q9Y3S1); test: Inhibition of Wnk2 in human PC3 cell lysates at 10 uM using desthiobiotin-tagged ATP probe AX9989 followed by trypsinization by LC/MS analysis
[9] = molecular target: T1, Serine/threonine-protein kinase D2 (Homo sapiens) (UniProt Q9BZL6); test: Inhibition of PKD2 in human PC3 cell lysates at 10 uM using desthiobiotin-tagged ATP probe AX9989 followed by trypsinization by LC/MS analysis
T1 sequence (whole entry): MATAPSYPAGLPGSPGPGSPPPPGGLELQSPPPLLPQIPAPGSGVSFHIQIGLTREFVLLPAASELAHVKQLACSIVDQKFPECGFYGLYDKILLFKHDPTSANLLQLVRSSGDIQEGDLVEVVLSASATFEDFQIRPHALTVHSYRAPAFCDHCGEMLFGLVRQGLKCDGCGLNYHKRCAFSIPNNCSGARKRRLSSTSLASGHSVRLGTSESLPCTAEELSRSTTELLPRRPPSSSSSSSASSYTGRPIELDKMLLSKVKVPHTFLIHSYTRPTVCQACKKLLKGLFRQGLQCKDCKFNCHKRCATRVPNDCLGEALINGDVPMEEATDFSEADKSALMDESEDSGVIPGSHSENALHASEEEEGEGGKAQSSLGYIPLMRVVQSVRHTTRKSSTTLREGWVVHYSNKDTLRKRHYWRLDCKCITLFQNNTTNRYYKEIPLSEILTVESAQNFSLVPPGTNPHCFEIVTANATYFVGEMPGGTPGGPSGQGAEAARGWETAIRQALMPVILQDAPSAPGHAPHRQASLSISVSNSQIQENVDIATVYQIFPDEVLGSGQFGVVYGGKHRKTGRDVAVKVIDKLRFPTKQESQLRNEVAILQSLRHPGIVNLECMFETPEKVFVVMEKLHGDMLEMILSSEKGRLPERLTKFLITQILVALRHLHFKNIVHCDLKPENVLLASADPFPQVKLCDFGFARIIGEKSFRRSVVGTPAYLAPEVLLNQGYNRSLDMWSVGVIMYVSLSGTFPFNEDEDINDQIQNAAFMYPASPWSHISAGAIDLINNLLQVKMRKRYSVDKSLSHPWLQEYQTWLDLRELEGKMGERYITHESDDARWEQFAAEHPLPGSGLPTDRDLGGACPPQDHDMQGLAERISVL

[10] = molecular target: T2, Dual specificity mitogen-activated protein kinase kinase 3 (Homo sapiens) (UniProt P46734); test: Inhibition of MAP2K3 in human PC3 cell lysates at 10 uM using desthiobiotin-tagged ATP probe AX9989 followed by trypsinization by LC/MS analysis
T2 sequence (whole entry): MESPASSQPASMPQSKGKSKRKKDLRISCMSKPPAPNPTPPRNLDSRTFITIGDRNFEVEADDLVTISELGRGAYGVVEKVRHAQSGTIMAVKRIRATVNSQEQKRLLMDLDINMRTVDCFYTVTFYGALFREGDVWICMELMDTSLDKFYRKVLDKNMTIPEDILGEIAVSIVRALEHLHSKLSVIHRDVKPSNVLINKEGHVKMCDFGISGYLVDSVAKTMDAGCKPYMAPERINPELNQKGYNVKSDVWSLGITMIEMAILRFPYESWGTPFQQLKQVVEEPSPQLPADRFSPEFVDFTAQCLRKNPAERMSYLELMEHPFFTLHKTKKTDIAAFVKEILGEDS

[11] = molecular target: Interferon-induced, double-stranded RNA-activated protein kinase (Homo sapiens) (UniProt P19525); test: Inhibition of PKR in human PC3 cell lysates at 10 uM using desthiobiotin-tagged ATP probe AX9989 followed by trypsinization by LC/MS analysis
[12] = molecular target: Serine/threonine-protein kinase ATR (Homo sapiens) (UniProt Q13535); test: Inhibition of ATR in human PC3 cell lysates at 10 uM using desthiobiotin-tagged ATP probe AX9989 followed by trypsinization by LC/MS analysis
[13] = molecular target: Serine/threonine-protein kinase WNK4 (Homo sapiens) (UniProt Q96J92); test: Inhibition of Wnk4 in human PC3 cell lysates at 10 uM using desthiobiotin-tagged ATP probe AX9989 followed by trypsinization by LC/MS analysis
Serine/threonine-protein kinase WNK4 (Homo sapiens), sequence (Q96J92 whole entry): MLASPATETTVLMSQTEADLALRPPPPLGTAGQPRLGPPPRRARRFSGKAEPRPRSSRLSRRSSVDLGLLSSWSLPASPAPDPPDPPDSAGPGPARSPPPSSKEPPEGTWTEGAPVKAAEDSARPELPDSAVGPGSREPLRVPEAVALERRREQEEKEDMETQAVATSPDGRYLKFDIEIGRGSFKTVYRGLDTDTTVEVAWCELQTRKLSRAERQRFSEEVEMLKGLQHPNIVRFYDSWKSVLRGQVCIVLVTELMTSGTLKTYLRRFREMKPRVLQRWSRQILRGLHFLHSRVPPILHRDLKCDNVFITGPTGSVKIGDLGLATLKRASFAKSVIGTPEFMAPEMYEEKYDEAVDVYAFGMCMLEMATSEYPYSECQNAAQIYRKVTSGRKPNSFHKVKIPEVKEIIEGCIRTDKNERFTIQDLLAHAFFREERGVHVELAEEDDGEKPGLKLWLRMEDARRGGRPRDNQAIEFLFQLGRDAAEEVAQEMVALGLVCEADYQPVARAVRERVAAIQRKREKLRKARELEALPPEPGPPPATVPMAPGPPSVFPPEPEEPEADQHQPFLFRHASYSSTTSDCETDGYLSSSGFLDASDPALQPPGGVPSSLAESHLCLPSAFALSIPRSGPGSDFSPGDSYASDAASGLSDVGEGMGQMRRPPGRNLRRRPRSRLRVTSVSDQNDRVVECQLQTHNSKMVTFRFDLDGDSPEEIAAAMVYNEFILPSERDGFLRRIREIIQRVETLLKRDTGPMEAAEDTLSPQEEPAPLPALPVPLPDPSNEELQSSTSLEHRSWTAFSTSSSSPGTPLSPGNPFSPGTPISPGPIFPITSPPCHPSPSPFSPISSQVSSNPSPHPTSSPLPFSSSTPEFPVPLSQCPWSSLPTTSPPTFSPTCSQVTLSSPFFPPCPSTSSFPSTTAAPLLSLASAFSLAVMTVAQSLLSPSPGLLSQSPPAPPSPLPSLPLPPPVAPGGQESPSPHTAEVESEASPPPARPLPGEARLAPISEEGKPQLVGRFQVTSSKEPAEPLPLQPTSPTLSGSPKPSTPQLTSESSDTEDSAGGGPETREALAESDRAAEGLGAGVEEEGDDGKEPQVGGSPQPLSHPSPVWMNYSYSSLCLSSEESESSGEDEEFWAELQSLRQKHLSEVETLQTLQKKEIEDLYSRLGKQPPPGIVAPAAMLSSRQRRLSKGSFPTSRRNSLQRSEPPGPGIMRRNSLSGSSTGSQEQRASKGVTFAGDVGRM

[14] = molecular target: Focal adhesion kinase 1 (Homo sapiens) (UniProt Q05397); test: Inhibition of FAK in human PC3 cell lysates at 10 uM using desthiobiotin-tagged ATP probe AX9989 followed by trypsinization by LC/MS analysis
[15] = molecular target: Mitogen-activated protein kinase kinase kinase 11 (Homo sapiens) (UniProt Q16584); test: Inhibition of MLK3 in human PC3 cell lysates at 10 uM using desthiobiotin-tagged ATP probe AX9989 followed by trypsinization by LC/MS analysis
[16] = molecular target: Cyclin-dependent kinase 2 (Homo sapiens) (UniProt P24941); test: Inhibition of CDK2 in human PC3 cell lysates at 10 uM using desthiobiotin-tagged ATP probe AX9989 followed by trypsinization by LC/MS analysis
[17] = molecular target: IKK epsilon/TBK1 (Homo sapiens) (UniProt Q14164+Q9UHD2); test: Inhibition of IKKepsilon/TBK1 in human PC3 cell lysates at 10 uM using desthiobiotin-tagged ATP probe AX9989 followed by trypsinization by LC/MS analysis; type: protein-complex assay

Cyclin-dependent kinase 10 (Homo sapiens), sequence (Q15131 whole entry): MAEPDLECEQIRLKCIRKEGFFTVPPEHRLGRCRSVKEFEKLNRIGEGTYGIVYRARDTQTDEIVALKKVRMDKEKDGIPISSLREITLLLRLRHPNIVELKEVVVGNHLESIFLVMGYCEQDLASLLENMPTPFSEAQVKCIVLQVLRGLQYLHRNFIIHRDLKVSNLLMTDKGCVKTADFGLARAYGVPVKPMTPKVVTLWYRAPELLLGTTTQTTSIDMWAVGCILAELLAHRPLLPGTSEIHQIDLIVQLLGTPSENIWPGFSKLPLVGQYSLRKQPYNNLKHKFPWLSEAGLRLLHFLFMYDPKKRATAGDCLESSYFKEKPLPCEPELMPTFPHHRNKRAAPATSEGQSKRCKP

SMILES | inhibition [1] [%] | inhibition [2] [%] | inhibition [3] [%] | inhibition [4] [%] | inhibition [5] [%] | inhibition [6] [%] | inhibition [7] [%] | inhibition [8] [%] | inhibition [9] [%] | inhibition [10] [%] | inhibition [11] [%] | inhibition [12] [%] | inhibition [13] [%] | inhibition [14] [%] | inhibition [15] [%] | inhibition [16] [%] | inhibition [17] [%]
C[C@H](NC(=O)c1ccc2nc(N[C@H]3CC[C@H](O)CC3)c3nccn3c2c1)c1ccccc1 | < 35 | < 35 | < 35 | < 35 | < 35 | < 35 | < 35 | < 35 | < 35 | < 35 | < 35 | < 35 | < 35 | < 35 | < 35 | < 35 | < 35
O=C(NC1(c2ccccc2)CCC1)c1ccc2nc(N[C@H]3CC[C@H](O)CC3)c3nccn3c2c1 | 59.1 | < 35 | < 35 | < 35 | < 35 | < 35 | < 35 | < 35 | < 35 | < 35 | < 35 | < 35 | < 35 | < 35 | < 35 | < 35 | < 35
